Results taken from paper PMC7871333 (Science translational medicine, 2020).

What was measured:
[1] = in vivo
[2] = rats; cited from earlier work

Compound	Caffeine pharmacokinetic parameters sampled in plasma or ISF [1]	Concentration in ISF compared to serum [2]
Cn1c(=O)c2c(ncn2C)n(C)c1=O [caffeine]	not significantly different	
CC/N=c1\cc2oc3cc(NCC)c(C)cc3c(-c3ccccc3C(=O)OCC)c-2cc1C [rhodamine 6G]		lower than in serum
